{DBCO-TEG} = DBCO-TEG group for click conjugation of the bait; l = locked nucleic acid (LNA); d = 2'-deoxy (DNA)
How the values were obtained:
[1] = tested on: Renilla STAT3 3′UTR reporter; assay: Cellular dual luciferase reporter assay (Renilla STAT3 3′UTR reporter, tagged CNOT7) in H1299 cells; type: cell-based; conditions: 10 nM, 30 nM, 100 nM ASO-bait, 24 hours, with CNOT7, relative to non-targeting ASO-bait
Text: Reporter constructs for cellular assays are depicted in FIG. 12. A luciferase reporter construct was designed to the 3′ UTR of STAT3 fused to Renilla luciferase, which contains the PEST and CP1 destabilizing domains. A second luciferase reporter construct was designed using the 3′UTR of HBB fused to Firefly luciferase, which contains the PEST and CP1 destabilizing domains. The reporter design for both constructs was previously described in Luo E C, et al. Nat Struct Mol Biol. 2020; 27(10):989-1000.
An antisense oligo was conjugated to the bait molecule AP1867, which binds FKPB12 via click-chemistry to generate a heterobifunctional molecule (ASO-bait). The bait molecule was chemically modified to contain an azide to allow for click chemistry. […]
A model system to interrogate the ability of a bifunctional RNA binder—CNOT7 binder is depicted in FIG. 13. A parallel approach utilizing a luciferase readout together with mRNA expression analysis was employed to assess the bifunctional molecule's capability to recruit CNOT7 to target mRNA and mediate mRNA degradation. […] A parallel plate was assessed for cell viability using CellTiter Glo (Promega). Data was analyzed by normalizing reporter signal relative to normalizer signal, and this ratio was then normalized to GFP. […]

STAT3 mRNA = assay: Endogenous STAT3 mRNA expression assay (ddPCR) in H1299 cells expressing tagged CNOT7; type: cell-based; conditions: 200 nM ASO-bait, 24 hours, with CNOT7, relative to non-targeting ASO-bait and GFP control
Protocol: For the endogenous mRNA expression assay, H1299 cells were seeded in a 12-well plate the day before transfection. On the following day, the cells were transfected with the plasmid expressing tagged CNOT7 and incubated for 24 hours. The following day, cells were transfected with 200 nM of the targeting or non-targeting ASO-bait molecules and incubated for 24 hours. In addition, cells were also transfected with a known STAT3 silencing ASO as a positive control for STAT3 mRNA knockdown. Samples were directly lysed in-well for RNA purification using the Promega Maxwell Automated RNA Extractor, followed by single-strand cDNA synthesis. The resulting cDNA was serially diluted at 1:100, which was used in the ddPCR reaction with primers designed to STAT3 and housekeeping genes (CLTC and TBP), the sequences of which are shown below. Data were analyzed by normalizing STAT3 relative to the geomean of TBP and CLTC. All transfections were performed using Lipofectamine 3000 (Invitrogen). […] Thus, the bifunctional molecule is capable of accelerating the degradation of endogenously expressed RNA.

“targeting ASO-bait: "An antisense oligo was conjugated to the bait molecule AP1867"; oligonucleotide binds "a sequence in the 3′UTR of STAT3" (SEQ ID NO:3) (antisense GAAGTACACATTGG; sugars from the 5' end dldldldldldldl, all phosphorothioate, 5' {DBCO-TEG}, methylation of C not given here; Bait AP1867 attached by click chemistry to the 5' DBCO-TEG)” was tested, and the “reporter signal (Renilla STAT3 3′UTR normalized to Firefly HBB and GFP)” value [1] was “reduction in reporter signal” and the “STAT3 expression (mRNA, ddPCR, normalized to TBP and CLTC)” value (STAT3 mRNA) was “reduction in STAT3 expression”.
